Data: patent US11944623B2, “Modulators of Kv3 channels to treat pain” (Autifony Therapeutics Limited, priority 2015, dated 2024)

Biological target: T1, human Kv3.1 channels (Homo sapiens, UniProt P48547)
T1 construct: expressed in transfected cells; host or cells: CHO/Gam/E1A-clone22 (CGE22) cells, transient BacMam transduction
T1 sequence (P48547 1-511): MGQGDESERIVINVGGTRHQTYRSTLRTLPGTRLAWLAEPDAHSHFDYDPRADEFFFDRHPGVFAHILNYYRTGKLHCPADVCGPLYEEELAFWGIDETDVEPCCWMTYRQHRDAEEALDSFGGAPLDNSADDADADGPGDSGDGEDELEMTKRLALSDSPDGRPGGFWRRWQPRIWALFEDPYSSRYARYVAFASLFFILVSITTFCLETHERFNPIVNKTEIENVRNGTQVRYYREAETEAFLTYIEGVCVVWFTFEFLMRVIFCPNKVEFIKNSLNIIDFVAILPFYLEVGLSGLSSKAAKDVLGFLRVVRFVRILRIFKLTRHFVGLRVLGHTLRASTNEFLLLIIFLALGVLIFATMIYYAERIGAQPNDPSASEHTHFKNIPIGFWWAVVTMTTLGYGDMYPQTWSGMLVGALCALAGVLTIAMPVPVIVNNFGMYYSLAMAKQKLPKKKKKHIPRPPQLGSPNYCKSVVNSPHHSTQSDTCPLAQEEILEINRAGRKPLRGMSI
Test: hKv3.1 IonWorks Quattro whole-cell current potentiation assay
Format: cell-based
Settings: potency as indicated by an EC50 value
Description: The ability of the compounds of the invention to modulate the voltage-gated potassium channel subtypes Kv3.3/Kv3.2/Kv3.1 may be determined using the following assay. Analogous methods may be used to investigate the ability of the compounds of the invention to modulate other channel subtypes.
To assess compound effects on human Kv3.1 channels (hKv3.1), CHO/Gam/E1A-clone22 alias CGE22 cells were transduced using a hKv3.1 BacMam reagent. This cell line was designed to be an improved CHO-K1-based host for enhanced recombinant protein expression as compared to wild type CHO-K1. The cell line was generated following the transduction of CHO-K1 cells with a BacMam virus expressing the Adenovirus-Gam1 protein and selection with Geneticin-G418, to generate a stable cell line, CHO/Gam-A3. CHO/Gam-A3 cells were transfected with pCDNA3-E1A-Hygro, followed by hygromycin-B selection and FACS sorting to obtain single-cell clones. […]
Experiments were conducted at room temperature using IonWorks Quattro™ planar array electrophysiology technology (Molecular Devices Corp.) with PatchPlate™ PPC. […] Planar electrode hole resistances (Rp) were determined by applying a 10 mV voltage step across each well. […]
Test pulses protocol may be performed in the absence (pre-read) and presence (post-read) of the test compound. […]

Cc1ccc(Oc2ccc(-n3c(C)n[nH]c3=O)cn2)c2c1OCC21CC1 [Compound 3, 5-methyl-4-{6-[(7-methylspiro[1-benzofuran-3,1′-cyclopropan]-4-yl)oxy]pyridin-3-yl}-2,4-dihydro-3H-1,2,4-triazol-3-one]
activity between modulation of Kv3.1 and Kv3.2 channels: comparable activity
